Test results published in PMC13058478 (Frontiers in Pharmacology, 2026).

Assay: Caco-2 passive permeability A to B
Assay type: in vitro ADME
Settings: Caco-2, A to B
Method: The concentration of each compound in the respective samples was determined by LC-MS.

Apparent passive permeability A to B Paap, Min: 18.41 10^-6 cm/s
Compound: CC(C)NCC(O)COc1cccc2ccccc12 (stereo not shown) [Propranolol]
